Results as given in article PMC4780864, “Family-wide Structural Analysis of Human Numb-Associated Protein Kinases” (Structure(London, England:1993), 2016).

What was measured:
Assay in all cases: biochemical
AAK1 = AAK1 (Homo sapiens, UniProt Q2M2I8); design: kinase domain; Thermal shift assay (DSF, SYPRO Orange), 2 uM kinase domain, mean delta Tm of triplicates versus DMSO; conditions: for ΔTm at 12.5 µM: read-out: AAK1
Experimental: (§1) All measurements were performed in triplicate and mean values were reported for all compounds (Table S1). […] However, NAKs are often omitted from selectivity panels, including commercial screens.

MPSK1 = molecular target: T1, MPSK1 (Homo sapiens, UniProt O75716); design: Thermal shift assay (DSF, SYPRO Orange), 2 uM kinase domain, mean delta Tm of triplicates versus DMSO; conditions: read-out: MPSK1
T1 construct: gene STK16; catalytic domain-containing construct
T1 sequence (O75716 whole entry, the tested form may be a part): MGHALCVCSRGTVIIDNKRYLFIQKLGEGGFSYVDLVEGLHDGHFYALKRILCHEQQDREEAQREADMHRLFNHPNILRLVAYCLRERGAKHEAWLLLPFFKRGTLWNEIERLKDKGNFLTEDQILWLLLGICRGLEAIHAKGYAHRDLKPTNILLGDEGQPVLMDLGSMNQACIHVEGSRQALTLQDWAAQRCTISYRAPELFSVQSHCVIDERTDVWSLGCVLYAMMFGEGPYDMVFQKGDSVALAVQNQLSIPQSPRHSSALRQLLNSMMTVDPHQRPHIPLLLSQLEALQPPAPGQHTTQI
Experimental: as §1

GAK = molecular target: T2, GAK (Homo sapiens, UniProt O14976); design: Thermal shift assay (DSF, SYPRO Orange), 2 uM kinase domain, mean delta Tm of triplicates versus DMSO; conditions: for ΔTm at 12.5 µM: read-out: GAK
T2 construct: catalytic domain-containing construct
T2 sequence (O14976 1-1311): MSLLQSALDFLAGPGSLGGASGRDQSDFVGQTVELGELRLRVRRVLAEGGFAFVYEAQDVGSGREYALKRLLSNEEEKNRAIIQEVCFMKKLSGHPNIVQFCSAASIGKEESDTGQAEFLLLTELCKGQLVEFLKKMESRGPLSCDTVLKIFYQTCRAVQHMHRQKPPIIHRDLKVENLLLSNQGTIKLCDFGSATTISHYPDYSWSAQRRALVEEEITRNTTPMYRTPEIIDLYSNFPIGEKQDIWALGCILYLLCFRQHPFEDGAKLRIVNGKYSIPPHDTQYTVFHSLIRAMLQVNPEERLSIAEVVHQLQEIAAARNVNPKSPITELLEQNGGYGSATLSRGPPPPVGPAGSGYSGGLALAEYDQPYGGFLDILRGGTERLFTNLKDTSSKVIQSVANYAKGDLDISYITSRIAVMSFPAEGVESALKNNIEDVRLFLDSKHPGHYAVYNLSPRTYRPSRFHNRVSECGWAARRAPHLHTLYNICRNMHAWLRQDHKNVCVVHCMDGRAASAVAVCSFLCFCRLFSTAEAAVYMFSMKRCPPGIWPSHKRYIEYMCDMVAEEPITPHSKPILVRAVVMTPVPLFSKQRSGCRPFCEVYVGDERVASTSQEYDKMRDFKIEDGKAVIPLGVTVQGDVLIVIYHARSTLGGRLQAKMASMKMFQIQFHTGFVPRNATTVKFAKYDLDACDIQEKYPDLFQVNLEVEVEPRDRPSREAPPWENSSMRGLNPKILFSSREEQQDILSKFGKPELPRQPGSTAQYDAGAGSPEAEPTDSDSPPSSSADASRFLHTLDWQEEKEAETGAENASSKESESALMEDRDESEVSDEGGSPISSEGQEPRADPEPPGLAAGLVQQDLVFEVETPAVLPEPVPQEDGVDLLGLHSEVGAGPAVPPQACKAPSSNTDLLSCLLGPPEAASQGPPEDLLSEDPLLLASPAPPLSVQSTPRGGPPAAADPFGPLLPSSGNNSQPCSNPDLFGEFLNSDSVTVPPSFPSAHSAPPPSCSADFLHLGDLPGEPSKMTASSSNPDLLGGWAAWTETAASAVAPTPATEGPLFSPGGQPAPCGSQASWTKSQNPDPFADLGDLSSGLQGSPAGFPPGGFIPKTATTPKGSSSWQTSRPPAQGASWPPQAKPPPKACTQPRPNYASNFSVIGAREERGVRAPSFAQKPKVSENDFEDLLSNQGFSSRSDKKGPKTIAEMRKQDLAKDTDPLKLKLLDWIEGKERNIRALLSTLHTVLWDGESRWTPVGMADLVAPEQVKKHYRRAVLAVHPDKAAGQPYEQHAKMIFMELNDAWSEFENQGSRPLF
Experimental: as §1

BIKE = molecular target: T3, BIKE (Homo sapiens, UniProt Q9NSY1); design: Thermal shift assay (DSF, SYPRO Orange), 2 uM kinase domain, mean delta Tm of triplicates versus DMSO; conditions: read-out: BIKE
T3 construct: gene BMP2K; catalytic domain-containing construct
T3 sequence (Q9NSY1 whole entry, the tested form may be a part): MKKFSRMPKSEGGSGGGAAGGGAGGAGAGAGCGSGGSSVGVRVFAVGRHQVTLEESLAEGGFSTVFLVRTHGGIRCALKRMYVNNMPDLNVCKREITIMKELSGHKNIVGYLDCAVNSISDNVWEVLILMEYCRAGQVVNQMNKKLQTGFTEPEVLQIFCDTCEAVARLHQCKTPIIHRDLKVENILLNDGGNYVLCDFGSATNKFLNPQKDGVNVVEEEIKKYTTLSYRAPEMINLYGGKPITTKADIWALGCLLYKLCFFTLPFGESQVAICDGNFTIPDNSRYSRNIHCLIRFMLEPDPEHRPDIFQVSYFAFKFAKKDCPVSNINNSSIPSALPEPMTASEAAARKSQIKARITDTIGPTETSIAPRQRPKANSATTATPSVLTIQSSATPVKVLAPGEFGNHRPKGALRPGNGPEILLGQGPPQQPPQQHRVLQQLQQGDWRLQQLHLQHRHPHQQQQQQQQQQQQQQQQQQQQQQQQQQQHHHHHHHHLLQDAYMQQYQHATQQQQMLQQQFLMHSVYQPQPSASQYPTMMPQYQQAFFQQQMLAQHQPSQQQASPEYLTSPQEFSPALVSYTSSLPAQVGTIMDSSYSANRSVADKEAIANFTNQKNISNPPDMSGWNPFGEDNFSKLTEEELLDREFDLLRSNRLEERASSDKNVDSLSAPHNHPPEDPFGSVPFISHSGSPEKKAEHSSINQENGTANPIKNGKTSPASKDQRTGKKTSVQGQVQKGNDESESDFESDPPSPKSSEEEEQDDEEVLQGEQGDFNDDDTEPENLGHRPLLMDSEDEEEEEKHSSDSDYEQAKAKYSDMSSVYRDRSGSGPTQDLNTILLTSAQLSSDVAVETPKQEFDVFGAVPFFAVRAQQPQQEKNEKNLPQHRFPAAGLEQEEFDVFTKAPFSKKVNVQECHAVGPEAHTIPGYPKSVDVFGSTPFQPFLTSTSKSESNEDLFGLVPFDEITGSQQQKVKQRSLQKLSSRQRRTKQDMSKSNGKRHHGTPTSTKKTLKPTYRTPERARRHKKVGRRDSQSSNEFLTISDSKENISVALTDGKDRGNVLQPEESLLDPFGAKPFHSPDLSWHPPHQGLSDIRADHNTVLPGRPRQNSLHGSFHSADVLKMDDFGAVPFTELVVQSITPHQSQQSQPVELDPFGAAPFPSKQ
Experimental: as §1

Sequence of AAK1 (Q2M2I8 27-365 limits assumed): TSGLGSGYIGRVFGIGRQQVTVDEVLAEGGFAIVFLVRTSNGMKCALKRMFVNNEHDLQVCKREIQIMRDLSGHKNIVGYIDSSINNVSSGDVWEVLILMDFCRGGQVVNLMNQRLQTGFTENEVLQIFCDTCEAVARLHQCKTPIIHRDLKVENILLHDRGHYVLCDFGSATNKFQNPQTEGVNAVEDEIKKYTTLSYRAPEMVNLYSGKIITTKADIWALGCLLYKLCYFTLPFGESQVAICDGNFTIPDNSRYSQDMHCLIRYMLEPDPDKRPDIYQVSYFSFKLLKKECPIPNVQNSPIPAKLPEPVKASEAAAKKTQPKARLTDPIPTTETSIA

ΔTm at 12.5 µM (AAK1) [°C]	ΔTm at 12.5 µM (MPSK1) [°C]	ΔTm at 12.5 µM (GAK) [°C]	ΔTm at 12.5 µM (BIKE) [°C]	AAK1 (AAK1; 12.5 µM) [°C]	GAK (GAK; 12.5 µM) [°C]	Structure (SMILES)
0.0667	1.64	0.577	0.41	–	–	CC(C)n1nc(-c2ccc3oc(N)nc3c2)c2c(N)ncnc21 [INK128]
0.197	0.6	-0.617	0.367	–	–	Cn1cnc2c(F)c(Nc3ccc(Br)cc3F)c(C(=O)NOCCO)cc21 [MEK-162]
1.69	0.263	6.66	2.84	–	–	COc1cc2ncnc(Nc3ccc(F)c(Cl)c3)c2cc1OCCCN1CCOCC1 [Gefitinib]
0.303	0.513	0.0567	0.423	–	–	Clc1ccc(Nc2nnc(Cc3ccncc3)c3ccccc23)cc1 [Vatalanib]
0.473	0.907	9.94	0.707	–	–	CNC(=O)c1cc(Oc2ccc(NC(=O)Nc3cc(C(C)(C)C)nn3-c3ccc4ncccc4c3)c(F)c2)ccn1 [Rebastinib]
0.367	0.827	-0.66	0.423	–	–	CC(=O)Nc1cccc(-n2c(=O)n(C3CC3)c(=O)c3c(Nc4ccc(I)cc4F)n(C)c(=O)c(C)c32)c1 [Trametinib]
1.1	1.1	-0.83	0.637	–	–	NC1(c2ccc(-c3nc4ccn5c(=O)[nH]nc5c4cc3-c3ccccc3)cc2)CCC1 [MK-2206]
1.34	0.977	0.347	0.81	–	–	Cc1cc2c(F)c(Oc3ncnn4cc(OC[C@@H](C)O)c(C)c34)ccc2[nH]1 [Brivanib]
0.3	0.84	-0.727	0.34	–	–	CC(C)NC[C@@H](C(=O)N1CCN(c2ncnc3c2[C@H](C)C[C@H]3O)CC1)c1ccc(Cl)cc1 [Ipatasertib]
1.96	5.04	2.49	5.72	–	–	Cc1ccc(F)c(NC(=O)Nc2ccc(-c3cccc4[nH]nc(N)c34)cc2)c1 [Linifanib]
0.547	0.99	1.98	0.833	–	–	Cc1ccc(NC(=O)c2ccc(CN3CCN(C)CC3)cc2)cc1Nc1nc(-c2cccnc2)cs1 [Masitinib]
11.6	10.3	5.81	15.2	–	–	C[C@@H](Oc1ccc2[nH]nc(/C=C/c3cnn(CCO)c3)c2c1)c1c(Cl)cncc1Cl [LY2874455]
0.26	1.43	-0.347	0.5	–	–	Cc1cc(C(C)Nc2ccccc2)c2nc(N3CCOCC3)cc(=O)n2c1 (stereo not shown) [TGX-221]
2.07	1.5	2.03	2.49	–	–	COc1cc2nccc(Oc3ccc(NC(=O)NC4CC4)c(Cl)c3)c2cc1C(N)=O [Lenvatinib]
2.99	2.24	13	2.93	–	–	Cc1ccc(C(=O)Nc2ccc(CN3CCN(C)CC3)c(C(F)(F)F)c2)cc1C#Cc1cnc2cccnn12 [Ponatinib]
0.57	1.21	0.06	1.76	–	–	COc1cc2c(N3CCN(C(=O)Nc4ccc(OC(C)C)cc4)CC3)ncnc2cc1OCCCN1CCCCC1 [Tandutinib]
–	6.79	–	13.9	8.67	4.647	CCN(CC)CCNC(=O)c1c(C)[nH]c(/C=C2\C(=O)Nc3ccc(F)cc32)c1C [Sunitinib]

ΔTm at 12.5 µM (AAK1) [°C]	ΔTm at 12.5 µM (MPSK1) [°C]	ΔTm at 12.5 µM (GAK) [°C]	ΔTm at 12.5 µM (BIKE) [°C]	AAK1 (AAK1; 12.5 µM) [°C]	GAK (GAK; 12.5 µM) [°C]	Structure (SMILES)
5.65	8.65	4.73	10.6	–	–	Cc1nc(Nc2n[nH]c3c2CN(C(=O)N[C@H](CN(C)C)c2ccccc2)C3(C)C)c2sccc2n1 [PF-03758309]
0.0367	0.277	-0.183	0.177	–	–	Cn1c(=O)c(F)c(Nc2ccc(I)cc2F)c2c(=O)n(C[C@@H](O)CO)cnc21 [TAK-733]
0.613	1.29	6.7	0.673	–	–	CCc1cc2c(cc1N1CCC(N3CCOCC3)CC1)C(C)(C)c1[nH]c3cc(C#N)ccc3c1C2=O [Alectinib]
4.66	4.1	3.73	12	–	–	CC1(COc2ccc3c(c2)ncn3-c2ccc3cccc(N4CCC(N)CC4)c3n2)COC1 [Crenolanib]
0.713	0.407	2.77	0.917	–	–	C#Cc1cccc(Nc2ncnc3cc(OC)c(OCCCCCCC(=O)NO)cc23)c1 [CUDC-101]
2.06	5.18	2.66	4.24	–	–	CCCS(=O)(=O)Nc1ccc(F)c(C(=O)c2c[nH]c3ncc(-c4ccc(Cl)cc4)cc23)c1F [Vemurafenib]
4.38	0.743	2.41	3.88	–	–	Cc1nc(NC(=O)N2CCC[C@H]2C(N)=O)sc1-c1ccnc(C(C)(C)C(F)(F)F)c1 [BYL719]
3.01	1.95	-0.44	7.44	–	–	C[C@@H](Oc1cc(-c2cnn(C3CCNCC3)c2)cnc1N)c1c(Cl)ccc(F)c1Cl [Crizotinib]
4.23	1.08	3.17	2.92	–	–	COc1cc(N2CCC(N3CCN(C)CC3)CC2)ccc1Nc1ncnc(Nc2ccccc2S(=O)(=O)C(C)C)n1 [ASP3026]
-0.16	-0.0133	0.227	0.13	–	–	CCc1cc(Nc2nccc(-c3c(-c4ccc(OC)c(C(=O)Nc5c(F)cccc5F)c4)nc4ccccn34)n2)c(OC)cc1N1CCC(N2CCN(S(C)(=O)=O)CC2)CC1 [GSK1904529A]
3.27	0.903	-0.0367	7	–	–	O=S(=O)(c1cccc2cnccc12)N1CCCNCC1 [Fasudil]
4.81	13.9	5.02	9.5	–	–	CN(c1ccccc1CNc1nc(Nc2ccc3c(c2)CC(=O)N3)ncc1C(F)(F)F)S(C)(=O)=O [PF 431396]
0.0767	0.0567	0.343	0.9	–	–	O=C(Nc1ccc2[nH]nc(-c3ccncc3)c2c1)[C@@H]1CCN(CC(=O)N2CCN(c3ccc(-c4ncccn4)cc3)CC2)C1 [SCH772984]
0.657	0.32	0.99	0.73	–	–	CCn1c(=O)c(-c2cc[nH]n2)cc2c(C)nc(N)nc21 [Voxtalisib]
1.55	2.49	-0.263	3.04	–	–	Cc1cnc(NC(=O)Nc2cc(Br)c(C)cc2OC[C@@H]2CNCCO2)cn1 [Rabusertib]
14.6	11.1	7.03	15	–	–	N#CCNC(=O)c1ccc(-c2ccnc(Nc3ccc(N4CCOCC4)cc3)n2)cc1 [Momelotinib]

Structure (SMILES)	ΔTm at 12.5 µM (AAK1) [°C]	ΔTm at 12.5 µM (MPSK1) [°C]	ΔTm at 12.5 µM (GAK) [°C]	ΔTm at 12.5 µM (BIKE) [°C]	AAK1 (AAK1; 12.5 µM) [°C]	GAK (GAK; 12.5 µM) [°C]
CC[C@H](CO)Nc1nc(NCc2ccccc2)c2ncn(C(C)C)c2n1 [Seliciclib]	0.393	2.4	-0.34	0.43	–	–
